For one molecule, cell proliferation results are on record in US9725490B2, “ERAP1-derived peptide and use thereof” (TOKUSHIMA UNIVERSITY, priority 2011, dated 2017).

The experiment deals with MCF-10A cells. In words: Cell proliferation assay, normal epithelial MCF-10A. Particulars: 24 hours. It counts as cell-based, human. As for the experimental part:
FIG. 6-1 is a diagram illustrating that ERAP1-peptide treatment suppresses ERα-dependent cell proliferation of breast cancer cell lines. (A) and (B) show the results of MTT assay by which the inhibition effect of the ERAP1-peptide in the E2-dependent cell proliferation was evaluated. MCF-7 cells were treated with the ERAP1-peptide (A, B) the ERAP1-scramble peptide (B) or the ERAP1-mutant peptide (B).
Using Cell-Counting Kit-8 (CCK-8, Dojindo, Kumamoto, Japan), the cell proliferation assay was performed. The cells were harvested, and plated in 2×10^4 cells/well on a 48-well plate, and maintained at 37° C. in a humidified incubator. At the indicated time points, the cells were added with a CCK-8 solution diluted to 1:10, and incubated for 1 hour. Then, the absorbance at 450 nm was measured and the number of living cells in each well was calculated.

Regarding `CSCC[C@H](NC(=O)[C@H](CCC(N)=O)NC(=O)[C@H](CCCNC(=N)N)NC(=O)[C@H](CCCNC(=N)N)NC(=O)[C@H](CCCNC(=N)N)NC(=O)[C@H](CCCNC(=N)N)NC(=O)[C@H](CCCNC(=N)N)NC(=O)[C@H](CCCNC(=N)N)NC(=O)[C@H](CCCNC(=N)N)NC(=O)[C@H](CCCNC(=N)N)NC(=O)[C@H](CCCNC(=N)N)NC(=O)[C@H](CCCNC(=N)N)NC(=O)[C@@H](N)CCCNC(=N)N)C(=O)N[C@@H](CC(C)C)C(=O)N[C@@H](CO)C(=O)N[C@@H](CC(=O)O)C(=O)N[C@@H](CC(C)C)C(=O)N[C@H](C(=O)N[C@@H](CC(C)C)C(=O)N[C@@H](CCC(N)=O)C(=O)N[C@@H](CC(C)C)C(=O)N[C@@H](CCCNC(=N)N)C(=O)N[C@@H](CCC(N)=O)C(=O)N[C@@H](CCCNC(=N)N)C(=O)O)[C@@H](C)O` [ERAP1-peptide], the cell proliferation entry is “had no influence on the cell proliferation at all”.
